Results from ChEMBL document CHEMBL6074682, “Expanding the therapeutic window of gramicidin S towards a safe and effective systemic treatment of methicillin-resistant S. aureus infections” (Eur J Med Chem, 2025).
≈ marks a conversion by molar mass, not a printed value. Square brackets hold non-standard residues; d marks the D form. Peptide text beside a SMILES is read from it. Tle = CC(C)(C)[C@H](N)C(=O)O; Orn = NCCC[C@H](N)C(=O)O

Columns and labels:
[1] = Hemolytic activity in human RBC assessed as hemolysis incubated for 1 hr by absorbance based assay; type: toxicity, cell-based, Erythrocyte; settings: human red blood cells
Staphylococcus aureus [2] = assay: Antibacterial activity against methicillin-resistant Staphylococcus aureus ATCC USA 300 clinical isolate assessed as bacterial growth inhibition at 256 to 0.125 ug/ml in CAMH broth medium incubated for 16 to 20 hrs by broth microdilution method; type: functional; settings: dose 256-0.125 µg/ml, time 16-20 hrs
[3] = Nephrotoxicity against HEK293 cells assessed as cell viability incubated for 24 hrs by MTT assay; type: toxicity, cell-based; settings: human
[4] = Therapeutic index, ratio of HC50 for human RBC to MIC for antibacterial activity against methicillin-sensitive Staphylococcus aureus ATCC 29213 clinical isolate; type: toxicity, cell-based; settings: pooled result: one value given for 2 cell lines, strains, targets or settings, read-out: TI
Staphylococcus aureus [5] = assay: Antibacterial activity against methicillin-sensitive Staphylococcus aureus ATCC 29213 clinical isolate assessed as bacterial growth inhibition at 256 to 0.125 ug/ml in CAMH broth medium incubated for 16 to 20 hrs by broth microdilution method; type: functional; settings: dose 256-0.125 µg/ml, time 16-20 hrs
[6] = Retention time of the compound by RP-HPLC analysis; type: physicochemical

CC(C)C[C@@H]1NC(=O)[C@H](CCCN)NC(=O)[C@H](C(C)C)NC(=O)[C@H](Cc2c[nH]c3ccccc23)NC(=O)[C@@H](Cc2c[nH]c3ccccc23)NC(=O)[C@H](CC(C)C)NC(=O)[C@H](CCCN)NC(=O)[C@H](C(C)C)NC(=O)[C@H](Cc2c[nH]c3ccccc23)NC(=O)[C@@H](Cc2ccccc2)NC1=O (HELM PEPTIDE1{L.[dF].W.V.[Orn].L.[dW].W.V.[Orn]}$PEPTIDE1,PEPTIDE1,1:R1-10:R2$$$V2.0)
HC50 at 1 h [1]: 37.2 µg/mL
MIC (Staphylococcus aureus [2]): 64 µg/mL (≈ 47.1 µM)
IC50 at 24 h [3]: 4.07 µg/mL (≈ 3 µM)
selectivity ratio [4]: 0.58
MIC (Staphylococcus aureus [5]): 64 µg/mL (≈ 47.1 µM)
Retention_time [6]: 18.68 min

CC(C)C[C@@H]1NC(=O)[C@H](CCCN)NC(=O)[C@H](C(C)(C)C)NC(=O)[C@@H]2CCCN2C(=O)[C@@H](Cc2ccccc2)NC(=O)[C@H](CC(C)C)NC(=O)[C@H](CCCN)NC(=O)[C@H](C(C)C)NC(=O)[C@@H]2CCCN2C(=O)[C@@H](CCCNC(=N)N)NC1=O
HC50 at 1 h [1]: 60.2 µg/mL
MIC (Staphylococcus aureus [2]): 6 µg/mL (≈ 5.15 µM)
IC50 at 24 h [3]: 19.5 µg/mL (≈ 16.8 µM)
selectivity ratio [4]: 10
MIC (Staphylococcus aureus [5]): 6 µg/mL (≈ 5.15 µM)
Retention_time [6]: 16.8 min

CC(C)C[C@@H]1NC(=O)[C@H](CCCN)NC(=O)[C@H](C(C)(C)C)NC(=O)[C@@H]2CCCN2C(=O)[C@@H](Cc2ccccc2)NC(=O)[C@H](CC(C)C)NC(=O)[C@H](CCCN)NC(=O)[C@H](C(C)C)NC(=O)[C@@H]2CCCN2C(=O)[C@@H](Cc2ccccc2)NC1=O (HELM PEPTIDE1{L.[dF].P.[CC(C)(C)[C@H](N[*:1])C(=O)[*:2]].[Orn].L.[dF].P.V.[Orn]}$PEPTIDE1,PEPTIDE1,1:R1-10:R2$$$V2.0)
HC50 at 1 h [1]: 7.49 µg/mL
MIC (Staphylococcus aureus [2]): 4 µg/mL (≈ 3.46 µM)
IC50 at 24 h [3]: 5.46 µg/mL (≈ 4.73 µM)
selectivity ratio [4]: 1.87
MIC (Staphylococcus aureus [5]): 4 µg/mL (≈ 3.46 µM)
Retention_time [6]: 19.38 min

CC(C)C[C@@H]1NC(=O)[C@H](CCCN)NC(=O)[C@H](C(C)(C)C)NC(=O)[C@@H]2CCCN2C(=O)[C@@H](Cc2ccccc2)NC(=O)[C@H](CC(C)C)NC(=O)[C@H](CCCN)NC(=O)[C@H](C(C)(C)C)NC(=O)[C@@H]2CCCN2C(=O)[C@@H](Cc2ccccc2)NC1=O (HELM PEPTIDE1{L.[dF].P.[CC(C)(C)[C@H](N[*:1])C(=O)[*:2]].[Orn].L.[dF].P.[CC(C)(C)[C@H](N[*:1])C(=O)[*:2]].[Orn]}$PEPTIDE1,PEPTIDE1,1:R1-10:R2$$$V2.0)
HC50 at 1 h [1]: 6.26 µg/mL
MIC (Staphylococcus aureus [2]): 4 µg/mL (≈ 3.42 µM)
IC50 at 24 h [3]: 4.62 µg/mL (≈ 3.95 µM)
selectivity ratio [4]: 1.57
MIC (Staphylococcus aureus [5]): 4 µg/mL (≈ 3.42 µM)
Retention_time [6]: 19.99 min

CC(C)C[C@@H]1NC(=O)[C@H](CCCN)NC(=O)[C@H](C(C)C)NC(=O)[C@H](Cc2c[nH]c3ccccc23)NC(=O)[C@@H](Cc2ccccc2)NC(=O)[C@H](CC(C)C)NC(=O)[C@H](CCCN)NC(=O)[C@H](C(C)C)NC(=O)[C@H](Cc2c[nH]c3ccccc23)NC(=O)[C@@H](Cc2ccccc2)NC1=O (HELM PEPTIDE1{L.[dF].W.V.[Orn].L.[dF].W.V.[Orn]}$PEPTIDE1,PEPTIDE1,1:R1-10:R2$$$V2.0)
HC50 at 1 h [1]: 12.2 µg/mL
MIC (Staphylococcus aureus [2]): 7 µg/mL (≈ 5.3 µM)
IC50 at 24 h [3]: 5.03 µg/mL (≈ 3.81 µM)
selectivity ratio [4]: 1.75
MIC (Staphylococcus aureus [5]): 7 µg/mL (≈ 5.3 µM)
Retention_time [6]: 18.58 min

CC(C)C[C@@H]1NC(=O)[C@H](CCCN)NC(=O)[C@H](C(C)C)NC(=O)[C@@H]2CCCN2C(=O)[C@@H](Cc2ccccc2)NC(=O)[C@H](CC(C)C)NC(=O)[C@H](CCCN)NC(=O)[C@H](C(C)C)NC(=O)[C@H](Cc2c[nH]c3ccccc23)NC(=O)[C@@H](Cc2ccccc2)NC1=O (HELM PEPTIDE1{L.[dF].P.V.[Orn].L.[dF].W.V.[Orn]}$PEPTIDE1,PEPTIDE1,1:R1-10:R2$$$V2.0)
HC50 at 1 h [1]: 9.04 µg/mL
MIC (Staphylococcus aureus [2]): 4 µg/mL (≈ 3.25 µM)
IC50 at 24 h [3]: 5.07 µg/mL (≈ 4.12 µM)
selectivity ratio [4]: 2.26
MIC (Staphylococcus aureus [5]): 4 µg/mL (≈ 3.25 µM)
Retention_time [6]: 18.78 min

CC(C)C[C@@H]1NC(=O)[C@H](CCCN)NC(=O)[C@H](C(C)C)NC(=O)[C@@H]2CCCN2C(=O)[C@@H](CCCNC(=N)N)NC(=O)[C@H](CC(C)C)NC(=O)[C@H](CCCN)NC(=O)[C@H](C(C)C)NC(=O)[C@H](Cc2c[nH]c3ccccc23)NC(=O)[C@@H](Cc2ccccc2)NC1=O (HELM PEPTIDE1{L.[dF].W.V.[Orn].L.[dR].P.V.[Orn]}$PEPTIDE1,PEPTIDE1,1:R1-10:R2$$$V2.0)
HC50 at 1 h [1]: 31.9 µg/mL
MIC (Staphylococcus aureus [2]): 5 µg/mL (≈ 4.03 µM)
IC50 at 24 h [3]: 11.3 µg/mL (≈ 9.13 µM)
selectivity ratio [4]: 6.38
MIC (Staphylococcus aureus [5]): 5 µg/mL (≈ 4.03 µM)
Retention_time [6]: 16.5 min

CC(C)C[C@@H]1NC(=O)[C@H](CCCN)NC(=O)[C@H](C(C)(C)C)NC(=O)[C@@H]2CCCN2C(=O)[C@@H](CCCNC(=N)N)NC(=O)[C@H](CC(C)C)NC(=O)[C@H](CCCN)NC(=O)[C@H](C(C)C)NC(=O)[C@@H]2CCCN2C(=O)[C@@H](Cc2ccccc2)NC1=O
HC50 at 1 h [1]: 50.5 µg/mL
MIC (Staphylococcus aureus [2]): 7 µg/mL (≈ 6.01 µM)
IC50 at 24 h [3]: 38.1 µg/mL (≈ 32.7 µM)
selectivity ratio [4]: 7.21
MIC (Staphylococcus aureus [5]): 7 µg/mL (≈ 6.01 µM)
Retention_time [6]: 16.79 min

CC(C)C[C@@H]1NC(=O)[C@H](CCCN)NC(=O)[C@H](C(C)C)NC(=O)[C@H](Cc2c[nH]c3ccccc23)NC(=O)[C@@H](Cc2ccccc2)NC(=O)[C@H](CC(C)C)NC(=O)[C@H](CCCN)NC(=O)[C@H](C(C)C)NC(=O)[C@H](Cc2c[nH]c3ccccc23)NC(=O)[C@@H](CCCNC(=N)N)NC1=O (HELM PEPTIDE1{L.[dF].W.V.[Orn].L.[dR].W.V.[Orn]}$PEPTIDE1,PEPTIDE1,1:R1-10:R2$$$V2.0)
HC50 at 1 h [1]: 19.6 µg/mL
MIC (Staphylococcus aureus [2]): 5 µg/mL (≈ 3.76 µM)
IC50 at 24 h [3]: 5.36 µg/mL (≈ 4.03 µM)
selectivity ratio [4]: 3.93
MIC (Staphylococcus aureus [5]): 5 µg/mL (≈ 3.76 µM)
Retention_time [6]: 16.6 min

CC(C)C[C@@H]1NC(=O)[C@H](CCCN)NC(=O)[C@H](C(C)C)NC(=O)[C@@H]2CCCN2C(=O)[C@@H](Cc2ccccc2)NC(=O)[C@H](CC(C)C)NC(=O)[C@H](CCCN)NC(=O)[C@H](C(C)C)NC(=O)[C@@H]2CCCN2C(=O)[C@@H](Cc2ccccc2)NC1=O [GRAMICIDIN S] (HELM PEPTIDE1{L.[dF].P.V.[Orn].L.[dF].P.V.[Orn]}$PEPTIDE1,PEPTIDE1,1:R1-10:R2$$$V2.0)
HC50 at 1 h [1]: 12.3 µg/mL
MIC (Staphylococcus aureus [2]): 4 µg/mL (≈ 3.5 µM)
IC50 at 24 h [3]: 6.45 µg/mL (≈ 5.65 µM)
selectivity ratio [4]: 3.09
MIC (Staphylococcus aureus [5]): 4 µg/mL (≈ 3.5 µM)
Retention_time [6]: 18.57 min

CC(C)C[C@@H]1NC(=O)[C@H](CCCN)NC(=O)[C@H](C(C)(C)C)NC(=O)[C@@H]2CCCN2C(=O)[C@@H](Cc2ccccc2)NC(=O)[C@H](CC(C)C)NC(=O)[C@H](CCCN)NC(=O)[C@H](C(C)(C)C)NC(=O)[C@@H]2CCCN2C(=O)[C@@H](CCCNC(=N)N)NC1=O (HELM PEPTIDE1{L.[dF].P.[CC(C)(C)[C@H](N[*:1])C(=O)[*:2]].[Orn].L.[dR].P.[CC(C)(C)[C@H](N[*:1])C(=O)[*:2]].[Orn]}$PEPTIDE1,PEPTIDE1,1:R1-10:R2$$$V2.0)
HC50 at 1 h [1]: 17.7 µg/mL
MIC (Staphylococcus aureus [2]): 3 µg/mL (≈ 2.55 µM)
IC50 at 24 h [3]: 9.75 µg/mL (≈ 8.27 µM)
selectivity ratio [4]: 5.9
MIC (Staphylococcus aureus [5]): 3 µg/mL (≈ 2.55 µM)
Retention_time [6]: 17.15 min

CC(C)(C)[C@@H]1NC(=O)[C@H](CCCN)NC(=O)[C@H](C(C)(C)C)NC(=O)[C@@H]2CCCN2C(=O)[C@@H](Cc2ccccc2)NC(=O)[C@H](C(C)(C)C)NC(=O)[C@H](CCCN)NC(=O)[C@H](C(C)(C)C)NC(=O)[C@@H]2CCCN2C(=O)[C@@H](CCCNC(=N)N)NC1=O (cyclo([Orn][Tle][dF]P[Tle][Orn][Tle][dR]P[Tle]))
HC50 at 1 h [1]: 84.1 µg/mL
MIC (Staphylococcus aureus [2]): 6 µg/mL (≈ 5.09 µM)
IC50 at 24 h [3]: 12.6 µg/mL (≈ 10.7 µM)
selectivity ratio [4]: 14
MIC (Staphylococcus aureus [5]): 6 µg/mL (≈ 5.09 µM)
Retention_time [6]: 16.92 min

CC(C)C[C@@H]1NC(=O)[C@H](CCCN)NC(=O)[C@H](C(C)C)NC(=O)[C@@H]2CCCN2C(=O)[C@@H](Cc2ccccc2)NC(=O)[C@H](CC(C)C)NC(=O)[C@H](CCCN)NC(=O)[C@H](C(C)C)NC(=O)[C@H](Cc2c[nH]c3ccccc23)NC(=O)[C@@H](CCCNC(=N)N)NC1=O (HELM PEPTIDE1{L.[dF].P.V.[Orn].L.[dR].W.V.[Orn]}$PEPTIDE1,PEPTIDE1,1:R1-10:R2$$$V2.0)
HC50 at 1 h [1]: 32.8 µg/mL
MIC (Staphylococcus aureus [2]): 5 µg/mL (≈ 4.03 µM)
IC50 at 24 h [3]: 13.6 µg/mL (≈ 11 µM)
selectivity ratio [4]: 6.56
MIC (Staphylococcus aureus [5]): 5 µg/mL (≈ 4.03 µM)
Retention_time [6]: 16.56 min

CC(C)C[C@@H]1NC(=O)[C@H](CCCN)NC(=O)[C@H](C(C)C)NC(=O)[C@@H]2CCCN2C(=O)[C@@H](Cc2ccccc2)NC(=O)[C@H](CC(C)C)NC(=O)[C@H](CCCN)NC(=O)[C@H](C(C)C)NC(=O)[C@H](Cc2c[nH]c3ccccc23)NC(=O)[C@@H](Cc2c[nH]c3ccccc23)NC1=O (HELM PEPTIDE1{L.[dF].P.V.[Orn].L.[dW].W.V.[Orn]}$PEPTIDE1,PEPTIDE1,1:R1-10:R2$$$V2.0)
HC50 at 1 h [1]: 5.85 µg/mL
MIC (Staphylococcus aureus [2]): 4 µg/mL (≈ 3.15 µM)
IC50 at 24 h [3]: 4.64 µg/mL (≈ 3.65 µM)
selectivity ratio [4]: 1.46
MIC (Staphylococcus aureus [5]): 4 µg/mL (≈ 3.15 µM)
Retention_time [6]: 18.78 min
